Converted amounts (≈) assume the structure as drawn.
Assays:
Assay in all cases: In vitro antibacterial activity, agar dilution MIC
Format in all cases: cell-based
[1] = tested on: Candida albicans CCH 442; conditions: Candida albicans CCH 442 (organism code TT); BHI agar, 35-37 °C, 20 to 24 hours; unit assumed
Procedure: (§1) Representative compounds of the present invention were assayed in vitro for antibacterial activity as follows: Twelve petri dishes containing successive aqueous dilutions of the test compound mixed with 10 mL of sterilized Brain Heart infusion (BHI) agar (Difco 0418-01-5) were prepared. Each plate was inoculated with 1:100 (or 1:10 for slow-growing strains, such as Micrococcus and Streptococcus) dilutions of up to 32 different microorganisms, using a Steers replicator block. […] In addition, a control plate, using BHI agar containing no test compound, was prepared and incubated at the beginning and end of each test.
(§2) An additional plate containing a compound having known susceptibility patterns for the organisms being tested and belonging to the same antibiotic class as the test compound was also prepared and incubated as a further control, as well as to provide test-to-test comparability.
(§3) After incubation, each plate was visually inspected. The minimum inhibitory concentration (MIC) was defined as the lowest concentration of drug yielding no growth, a slight haze, or sparsely isolated colonies on the inoculum spot as compared to the growth control.

[2] = tested on: Enterococcus faecium ATCC 8043; conditions: Enterococcus faecium ATCC 8043 (organism code II); BHI agar, 35-37 °C, 20 to 24 hours; unit assumed
Procedure: as §1, §2, §3

[3] = tested on: Escherichia coli DC-2; conditions: Escherichia coli DC-2 (organism code SS); BHI agar, 35-37 °C, 20 to 24 hours; unit assumed
Procedure: as §1, §2, §3

[4] = tested on: Escherichia coli JUHL; conditions: Escherichia coli JUHL (organism code QQ); BHI agar, 35-37 °C, 20 to 24 hours; unit assumed
Procedure: as §1, §2, §3

[5] = tested on: Escherichia coli SS; conditions: Escherichia coli SS (organism code RR); BHI agar, 35-37 °C, 20 to 24 hours; unit assumed
Procedure: as §1, §2, §3

[6] = tested on: Haemophilis Influenzae DILL AMP R; conditions: Haemophilis Influenzae DILL AMP R (organism code WW); BHI agar, 35-37 °C, 20 to 24 hours; unit assumed
Procedure: as §1, §2, §3

[7] = tested on: Micrococcus luteus ATCC 4698; conditions: Micrococcus luteus ATCC 4698 (organism code PP); BHI agar, 35-37 °C, 20 to 24 hours; unit assumed
Procedure: as §1, §2, §3

[8] = tested on: Micrococcus luteus ATCC 9341; conditions: Micrococcus luteus ATCC 9341 (organism code OO); BHI agar, 35-37 °C, 20 to 24 hours; unit assumed
Procedure: as §1, §2, §3

[9] = tested on: Mycobacterium smegmatis ATCC 114; conditions: Mycobacterium smegmatis ATCC 114 (organism code UU); BHI agar, 35-37 °C, 20 to 24 hours; unit assumed
Procedure: as §1, §2, §3

[10] = tested on: Nocardia Asteroides ATCC9970; conditions: Nocardia Asteroides ATCC9970 (organism code VV); BHI agar, 35-37 °C, 20 to 24 hours; unit assumed
Procedure: as §1, §2, §3

[11] = tested on: Staphylococcus aureus 1775; conditions: Staphylococcus aureus 1775 (organism code GG); BHI agar, 35-37 °C, 20 to 24 hours; unit assumed
Procedure: as §1, §2, §3

[12] = tested on: Staphylococcus aureus A-5278; conditions: Staphylococcus aureus A-5278 (organism code CC); BHI agar, 35-37 °C, 20 to 24 hours; unit assumed
Procedure: as §1, §2, §3

[13] = tested on: Staphylococcus aureus A5177; conditions: Staphylococcus aureus A5177 (organism code BB); BHI agar, 35-37 °C, 20 to 24 hours; unit assumed
Procedure: as §1, §2, §3

[14] = tested on: Staphylococcus aureus ATCC 6538P; conditions: Staphylococcus aureus ATCC 6538P (organism code AA); BHI agar, 35-37 °C, 20 to 24 hours; unit assumed
Procedure: as §1, §2, §3

[15] = tested on: Staphylococcus aureus CMX 553; conditions: Staphylococcus aureus CMX 553 (organism code FF); BHI agar, 35-37 °C, 20 to 24 hours; unit assumed
Procedure: as §1, §2, §3

[16] = tested on: Staphylococcus aureus CMX 642A; conditions: Staphylococcus aureus CMX 642A (organism code DD); BHI agar, 35-37 °C, 20 to 24 hours; unit assumed
Procedure: as §1, §2, §3

[17] = tested on: Staphylococcus aureus NCTC10649M; conditions: Staphylococcus aureus NCTC10649M (organism code EE); BHI agar, 35-37 °C, 20 to 24 hours; unit assumed
Procedure: as §1, §2, §3

[18] = tested on: Staphylococcus epidermidis 3519; conditions: Staphylococcus epidermidis 3519 (organism code HH); BHI agar, 35-37 °C, 20 to 24 hours; unit assumed
Procedure: as §1, §2, §3

[19] = tested on: Streptococcus Pheumoniae 5649; conditions: Streptococcus Pheumoniae 5649 (organism code ZZA); BHI agar, 35-37 °C, 20 to 24 hours; unit assumed
Procedure: as §1, §2, §3

[20] = tested on: Streptococcus Pheumoniae 5979; conditions: Streptococcus Pheumoniae 5979 (organism code ZZ); BHI agar, 35-37 °C, 20 to 24 hours; unit assumed
Procedure: as §1, §2, §3

[21] = tested on: Streptococcus Pheumoniae ATCC6303; conditions: Streptococcus Pheumoniae ATCC6303 (organism code XX); BHI agar, 35-37 °C, 20 to 24 hours; unit assumed
Procedure: as §1, §2, §3

[22] = tested on: Streptococcus Pheumoniae GYR 1171; conditions: Streptococcus Pheumoniae GYR 1171 (organism code YY); BHI agar, 35-37 °C, 20 to 24 hours; unit assumed
Procedure: as §1, §2, §3

[23] = tested on: Streptococcus agalactiae CMX 508; conditions: Streptococcus agalactiae CMX 508 (organism code KK); BHI agar, 35-37 °C, 20 to 24 hours; unit assumed
Procedure: as §1, §2, §3

[24] = tested on: Streptococcus bovis A-5169; conditions: Streptococcus bovis A-5169 (organism code JJ); BHI agar, 35-37 °C, 20 to 24 hours; unit assumed
Procedure: as §1, §2, §3

[25] = tested on: Streptococcus pyogenes 930; conditions: Streptococcus pyogenes 930 (organism code MM); BHI agar, 35-37 °C, 20 to 24 hours; unit assumed
Procedure: as §1, §2, §3

[26] = tested on: Streptococcus pyogenes EES61; conditions: Streptococcus pyogenes EES61 (organism code LL); BHI agar, 35-37 °C, 20 to 24 hours; unit assumed
Procedure: as §1, §2, §3

[27] = tested on: Streptococcus pyogenes PIU 2548; conditions: Streptococcus pyogenes PIU 2548 (organism code NN); BHI agar, 35-37 °C, 20 to 24 hours; unit assumed
Procedure: as §1, §2, §3

Row | SMILES | MIC [1] | MIC [2] | MIC [3] | MIC [4] | MIC [5] | MIC [6] | MIC [7] | MIC [8] | MIC [9] | MIC [10] | MIC [11] | MIC [12] | MIC [13] | MIC [14] | MIC [15] | MIC [16] | MIC [17] | MIC [18] | MIC [19] | MIC [20] | also measured
1 | CC[C@H]1OC(=O)[C@H](C)C(=O)[C@H](C)[C@@H](O[C@@H]2O[C@H](C)C[C@H](N(C)CC=Cc3ccccc3)[C@H]2O)[C@](C)(OCC=Cc2cnc3ccccc3c2)C[C@@H](C)C(=O)[C@H](C)[C@H]2NC(=O)O[C@@]21C [Example 17, Compound of Formula (II); R is -CH2CH=CH-(3-quinolyl), R^p is H, W is absent, R^w is H, R^1 is CH2CH=CHC6H5, R^2 is CH3] | > 100 µg/mL | 0.1 µg/mL | > 100 µg/mL | > 100 µg/mL | 1.56 µg/mL | 8 µg/mL | 0.39 µg/mL | 0.05 µg/mL | 0.39 µg/mL | 0.2 µg/mL | > 100 µg/mL | > 100 µg/mL | 0.39 µg/mL | 0.39 µg/mL | 0.39 µg/mL | 0.39 µg/mL | 0.78 µg/mL | 0.39 µg/mL | 0.25 µg/mL | 16 µg/mL | MIC [21]: ≤ 0.015 µg/mL; MIC [22]: ≤ 0.015 µg/mL; MIC [23]: 0.05 µg/mL; MIC [24]: 0.05 µg/mL; MIC [25]: 12.5 µg/mL; MIC [26]: 0.2 µg/mL; MIC [27]: 0.39 µg/mL
2 | CC[C@H]1OC(=O)[C@H](C)C(=O)[C@H](C)[C@@H](O[C@@H]2O[C@H](C)C[C@H](NC)[C@H]2O)[C@](C)(OCC=Cc2cnc3ccccc3c2)C[C@@H](C)C(=O)[C@H](C)[C@H]2NC(=O)O[C@@]21C [Example 3, Compound of Formula (II); R is -CH2CH=CH-(3-quinolyl), R^p is H, W is absent, R^w is H, R^1 is H, R^2 is CH3-] | > 100 µg/mL | 0.2 µg/mL | > 100 µg/mL | > 100 µg/mL | 0.78 µg/mL | 16 µg/mL | 0.1 µg/mL | 0.02 µg/mL | 12.5 µg/mL | 3.1 µg/mL | > 100 µg/mL | > 100 µg/mL | 0.2 µg/mL | 0.2 µg/mL | 0.39 µg/mL | 0.39 µg/mL | 0.39 µg/mL | 0.39 µg/mL | 0.5 µg/mL | > 128 µg/mL | MIC [21]: 0.03 µg/mL; MIC [22]: 0.03 µg/mL; MIC [23]: 0.02 µg/mL; MIC [24]: 0.01 µg/mL; MIC [25]: 12.5 µg/mL; MIC [26]: 0.01 µg/mL; MIC [27]: 0.39 µg/mL
3 | CC[C@H]1OC(=O)[C@H](C)C(=O)[C@H](C)[C@@H](O[C@@H]2O[C@H](C)C[C@H](NC)[C@H]2OC(C)=O)[C@](C)(OCC=Cc2cnc3ccccc3c2)C[C@@H](C)C(=O)[C@H](C)[C@H]2NC(=O)O[C@@]21C [Example 2, Compound of formula (II), R is -CH2CH=CH-(3-quinolyl), R^p is acetyl, R^1 is H, R^2 is CH3, W is absent, R^w is H] | > 100 µg/mL | 0.05 µg/mL | > 100 µg/mL | > 100 µg/mL | 0.39 µg/mL | 16 µg/mL | 0.1 µg/mL | 0.02 µg/mL | 3.1 µg/mL | 1.56 µg/mL | > 100 µg/mL | > 100 µg/mL | 0.2 µg/mL | 0.2 µg/mL | 0.2 µg/mL | 0.2 µg/mL | 0.2 µg/mL | 0.2 µg/mL | 0.5 µg/mL | 128 µg/mL | MIC [21]: 0.03 µg/mL; MIC [22]: 0.03 µg/mL; MIC [23]: ≤ 0.005 µg/mL; MIC [24]: ≤ 0.005 µg/mL; MIC [25]: 25 µg/mL; MIC [26]: ≤ 0.005 µg/mL; MIC [27]: 0.39 µg/mL
4 | C=C(C)CN(C)[C@H]1C[C@@H](C)O[C@@H](O[C@@H]2[C@@H](C)C(=O)[C@@H](C)C(=O)O[C@H](CC)[C@@]3(C)OC(=O)N[C@@H]3[C@@H](C)C(=O)[C@H](C)C[C@@]2(C)OCC=Cc2cnc3ccccc3c2)[C@@H]1O [Example 19, Compound of Formula (II); R is -CH2CH=CH-(3-quinolyl), R^p is H, W is absent, R^w is H, R^1 is CH2C(=CH2)CH3,R^2 is CH3] | > 100 µg/mL | 0.1 µg/mL | > 100 µg/mL | > 100 µg/mL | 0.78 µg/mL | 4 µg/mL | 0.1 µg/mL | 0.05 µg/mL | 0.2 µg/mL | 0.1 µg/mL | > 100 µg/mL | > 100 µg/mL | 0.2 µg/mL | 0.2 µg/mL | 0.2 µg/mL | 0.2 µg/mL | 0.39 µg/mL | 0.2 µg/mL | 0.12 µg/mL | 128 µg/mL | MIC [21]: ≤ 0.004 µg/mL; MIC [22]: ≤ 0.004 µg/mL; MIC [23]: 0.02 µg/mL; MIC [24]: 0.02 µg/mL; MIC [25]: 6.2 µg/mL; MIC [26]: 0.01 µg/mL; MIC [27]: 0.2 µg/mL
5 | CC[C@H]1OC(=O)[C@H](C)C(=O)[C@H](C)[C@@H](O[C@@H]2O[C@H](C)C[C@H](N(C)Cc3ccccc3)[C@H]2O)[C@](C)(OCC=Cc2cnc3ccccc3c2)C[C@@H](C)C(=O)[C@H](C)[C@H]2NC(=O)O[C@@]21C [Example 8] | > 100 µg/mL | 0.1 µg/mL (≈ 0.119 µM) | > 100 µg/mL | > 100 µg/mL | 0.78 µg/mL (≈ 0.926 µM) | 4 µg/mL (≈ 4.75 µM) | 0.05 µg/mL (≈ 0.0594 µM) | 0.05 µg/mL (≈ 0.0594 µM) | 0.39 µg/mL (≈ 0.463 µM) | 0.2 µg/mL (≈ 0.238 µM) | > 100 µg/mL | > 100 µg/mL | 0.2 µg/mL (≈ 0.238 µM) | 0.2 µg/mL (≈ 0.238 µM) | 0.2 µg/mL (≈ 0.238 µM) | 0.2 µg/mL (≈ 0.238 µM) | 0.2 µg/mL (≈ 0.238 µM) | 0.2 µg/mL (≈ 0.238 µM) | 0.5 µg/mL (≈ 0.594 µM) | > 128 µg/mL | MIC [21]: 0.03 µg/mL (≈ 0.0356 µM); MIC [22]: 0.03 µg/mL (≈ 0.0356 µM); MIC [23]: 0.02 µg/mL (≈ 0.0238 µM); MIC [24]: 0.02 µg/mL (≈ 0.0238 µM); MIC [25]: > 100 µg/mL; MIC [26]: 0.02 µg/mL (≈ 0.0238 µM); MIC [27]: 0.2 µg/mL (≈ 0.238 µM)

— patent EP1025114B1, “3'-N-MODIFIED 6-O-SUBSTITUTED ERYTHROMYCIN KETOLIDE DERIVATIVES HAVING ANTIBACTERIAL ACTIVITY” (priority 1997, dated 1999)
